What was measured:
[1] = system: SRD5A; conditions: cited from earlier work
[2] = system: prostate cancer (CaP); assay: Treatment of men with prostate cancer (CaP) with SRD5A inhibitors; type: in vivo, human; conditions: patients at Roswell Park Cancer Institute
[3] = system: prostate cancer (CaP); conditions: Thompson et al. 2003; cited from earlier work
[4] = biological target: T1, SRD5AIII (Homo sapiens, UniProt Q9H8P0); assay: Recombinant SRD5AIII in vitro assay (conversion of T to DHT, TLC); type: biochemical
T1 construct: expressed in transfected cells; host or cells: CV-1 (monkey kidney) cells infected with Ad-SRD5AIII; cell-free homogenate
T1 sequence (Q9H8P0 1-318): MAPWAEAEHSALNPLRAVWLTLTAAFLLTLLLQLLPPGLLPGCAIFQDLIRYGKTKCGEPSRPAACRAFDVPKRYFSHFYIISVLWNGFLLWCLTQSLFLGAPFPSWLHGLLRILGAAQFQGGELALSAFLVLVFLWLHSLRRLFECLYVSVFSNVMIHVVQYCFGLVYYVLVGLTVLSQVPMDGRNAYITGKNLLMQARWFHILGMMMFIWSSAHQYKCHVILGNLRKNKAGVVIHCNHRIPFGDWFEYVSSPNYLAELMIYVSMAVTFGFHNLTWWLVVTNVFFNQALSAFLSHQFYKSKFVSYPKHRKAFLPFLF
Description: Recombinant SRD5AIII in vitro assays. Ad-SRD5AIII infected CV-1 cells and uninfected CV-1 control cells were prepared and assayed for SRD5AIII using methods of Titus et al. (Titus et al. Clin Cancer Res 2005; 11:4365-4371) and Pratis et al. (Pratis et al. J Steroid Biochem Mol Biol 2000; 75:75-82). All steps prior to incubation were carried out at 4° C. SRD5AIII specific activity was expressed in pmol/mg protein/hr using Ad-SRD5AIII infected CV-1 cells.
Ad-SRD5AIII infected CV-1 cells or uninfected CV-1 cells were homogenized in 0.5 ml ice-cold homogenization buffer (50 mM potassium phosphate [pH 7.4], 0.25M sucrose, 1 mM EDTA, 1 mM dithiothreitol, 1 mM fresh phenylmethylsulfonyl chloride, 1× Complete™ protease inhibitor [Roche, Indianapolis, Ind.] using a PowerGen 125 (Fischer Scientific) for two 10-second bursts and sonicated (Branson Sonifier CD200, SmilthKine) at 20% power for 15 one-second bursts. Final homogenates were centrifuged at 500×g for 1 min to remove particulate. The resulting cell free supernatants were placed on ice and used immediately. Protein concentrations were measured using the procedure of Lowry et al. (Lowry et al. J Biol Chem 1951; 193:265-75).
The buffer for all incubations contained 100 mM Tris-citrate, 0.5 mM dithiothreitol, 0.5 mM NADPH and 1 μCi ^3H-testosterone (New England Nuclear, Boston, Mass.). […] Incubations were performed in total volume 250 μl at pH 7.0 and pH 5.0. […]
The conversion of T to dihydrotestosterone (DHT), androstanedione and androsterone was analyzed using thin layer chromatography (TLC, 33). […] Control incubations were analyzed as described above.
The amount of radioactive DHT, androstanedione and androsterone was calculated as percent total radioactivity (^3H) recovered from the thin layer chromatography lane. […]
Anti-6X-His and anti-X-press antibodies were used to evaluate the expression level of 6X-His and X-press-tagged SRD5AIII in infected CV1 cells. […] However, the molecular weight of the detected band was higher than the expected SRD5AIII molecular weight of about 37 kDa. […]

Question: For `C[C@]12C=CC(=O)N[C@@H]1CC[C@@H]1[C@@H]2CC[C@]2(C)[C@@H](C(=O)Nc3cc(C(F)(F)F)ccc3C(F)(F)F)CC[C@@H]12` [dutasteride, Dutasteride], which “Inhibition of SRD5A activity” value [1] is on record?
Answer: neither finasteride nor dutasteride inhibits SRD5A activity completely

Question: And the “Response in patients, early results” value [2]?
Answer: incomplete remission

Question: What does the source list for `CC(C)(C)NC(=O)[C@H]1CC[C@H]2[C@@H]3CC[C@H]4NC(=O)C=C[C@]4(C)[C@H]3CC[C@]12C` [finasteride]?
Answer: Efficacy as treatment for CaP [3]: Lack of efficacy; Inhibition of SRD5A activity [1]: neither finasteride nor dutasteride inhibits SRD5A activity completely

B1: SRD5AIII: novel steroid 5α-reductase isozyme, 318 amino acids, SEQ ID NO:2 (protein)
chain: T1 sequence (Q9H8P0 1-318)
modifications: human
Question: Which pH optimum [4] does the source give for B1 here?
Answer: ~7.0

Question: What about the SRD5AIII enzyme activity ([4]; pH 5.0, 1 μM T substrate, n=1) of the same molecule?
Answer: not detected

Question: And the “SRD5AIII specific activity after subtracting background activity” value ([4]; pH 7.0, 5 μM T substrate, n=3, Ad-SRD5AIII infected CV-1 cell homogenate)?
Answer: 15.6 pmol/mg protein/hour
